Source: patent US4223036A, “1-(1,3-Dioxolan-2-ylmethyl)-1H-1,2,4-triazoles” (Janssen Pharmaceutica N.V., priority 1979, dated 1980)
Structures can show the parent of a compound that is named as a salt.

Key:
Candida albicans [1] = assay: Activity against vaginal candidosis in rats (lowest oral dose active at the 14th day after infection); format: in vivo, Female Wistar rats; parameters: lowest effective oral dose (vaginal candidosis in rats): unit not given here; conditions: oral once a day for two days, active at 14th day after infection; for lowest effective oral dose (vaginal candidosis in rats): Table I; for minimal effective dose: Candida albicans, 336 h, Table II
Method: Experiment A: Activity of Compounds (I) Against Vaginal Candidosis in Rats
Female Wistar rats of ±100 g body weight were used. They were ovariectomized and hysterectomized and after three weeks of recovery, 100 μg of oestradiol undecylate in sesame oil was given subcutaneously once a week for 3 consecutive weeks. The thus induced pseudooestrus was controlled by microscopic examination of vaginal smears. Food and water were left available ad libitum.
The rats were infected intravaginally with 8.10^5 cells of Candida albicans, grown on Sabouraud broth for 48 hours at 37° C. and diluted with saline. The date of infection varied from day +25 to day +32 after surgical intervention, depending on the appearance of signs of induced pseudo-oestrus.
The drugs under investigation were administered orally once a day for two days starting from the day of infection. For each experiment there were placebo treated controls. The results were assessed by taking vaginal smears with sterile swabs on several days after infection. The swabs were put into Sabouraud broth in petri-dishes and incubated for 48 hours a 37° C. If no growth of Candida albicans occured, i.e., when the animals were negative at the end of the experiment, this was due to drug administration because it never happened in placebo treated controls.
The Tables I, II and III below give the lowest oral dose of the drug under investigation which was found active at the 14th day after infection.

Candida albicans [2] = assay: Activity against crop candidosis in turkeys (dose whereby crops of 50% of animals were completely negative); format: in vivo; conditions: medicated feed for 13 consecutive days
Method: Experiment B: Activity of Compounds (I) Against Crop Candidosis in Turkeys
Turkeys of 14 days old were infected in the crop with 4.10^6 Candida albicans cells, grown on Sabouraud broth for 48 hours at 37° C. and diluted with saline. The volume of the inoculum was 1 ml. The drug under investigation were premixed in 500 mg of lacton and thereafter admixed in 1000 g of meal without any additives. The concentration of the drug under investigation in the meal was expressed in mg/kg.
The animals were given the medicated feed for 13 consecutive days starting on the day of infection. At the end of the experiment all animals were sacrificed. At autopsy the crops were removed, emptied and grinded in an ultra-turrax mixer in 15 ml of sterile saline. Colony counting was done on Sabouraud agar and the results given in the Tables I, II and III represent the ED50, i.e., the dose of the drug whereby the crops of 50% of the animals were completely negative for Candida albicans.

Structure (SMILES) | lowest effective oral dose (vaginal candidosis in rats) (Candida albicans [1]) | ED50 (crop candidosis in turkeys) (Candida albicans [2]; Table I) | also measured
CCOC(=O)N1CCN(c2ccc(OC[C@H]3CO[C@](Cn4ccnc4)(c4ccc(Cl)cc4Cl)O3)cc2)CC1 (relative stereo) [drawing 39, cis-ethyl 4-{4-[2-(2,4-dichlorophenyl)-2-(1H-imidazol-1-ylmethyl)-1,3-dioxolan-4-ylmethoxy]phenyl}-1-piperazinecarboxylate dihydrochloride hemihydrate] |  |  | lowest effective oral dose (vaginal candidosis in rats) (Candida albicans [1]; dihydrochloride hemihydrate): 10; ED50 (crop candidosis in turkeys) (Candida albicans [2]; Table I, dihydrochloride hemihydrate): 31 mg/kg of feed
CC(=O)N1CCN(c2ccc(OC[C@H]3CO[C@](Cn4ccnc4)(c4ccc(Cl)cc4Cl)O3)cc2)CC1 (relative stereo) | 2.5 | 8 mg/kg of feed | 
COc1ccc(C(=O)Nc2ccc(OC[C@H]3CO[C@](Cn4ccnc4)(c4ccc(Cl)cc4Cl)O3)cc2)cc1 (relative stereo) | 40 | 16 mg/kg of feed | 
CCC(=O)Nc1ccc(OC[C@H]2CO[C@](Cn3ccnc3)(c3ccc(Cl)cc3Cl)O2)cc1 (relative stereo) [NHCOC2 H5, cis-N-{4-[2-(2,4-dichlorophenyl)-2-(1H-imidazol-1-ylmethyl)-1,3-dioxolan-4-ylmethoxy]phenyl}propanaide ethanedioate. 2-propanolate] | 10 | 31 mg/kg of feed | 
CCOC(=O)Nc1ccc(OC[C@H]2CO[C@](Cn3ccnc3)(c3ccc(Cl)cc3Cl)O2)cc1 (relative stereo) [NHCOOC2 H5, cis-ethyl {4-[2-(2,4-dichlorophenyl)-2-(1H-imidazol-1-ylmethyl)-1,3-dioxolan-4-ylmethoxy]phenyl}carbamate] | 5 | 16 mg/kg of feed | 
S=C=Nc1ccc(OC[C@H]2CO[C@](Cn3ccnc3)(c3ccc(Cl)cc3Cl)O2)cc1 (relative stereo) [NCS, cis-1-[2-(2,4-dichlorophenyl)-4-(4-isothiocyanatophenoxymethyl)-1,3-dioxolan-2-ylmethyl]-1H-imidazole] | 5 | 125 mg/kg of feed | 
Clc1ccc([C@@]2(Cn3ccnc3)OC[C@H](COc3ccc(N4CCN(Cc5ccccc5)CC4)cc3)O2)c(Cl)c1 (relative stereo) [drawing 50] | 1.25 | 16 mg/kg of feed | 
CNC(=S)Nc1ccc(OC[C@H]2CO[C@](Cn3ccnc3)(c3ccc(Cl)cc3Cl)O2)cc1 (relative stereo) [NHCSNHCH3, cis-N-{4-[2-(2,4-dichlorophenyl)-2-(1H-imidzol-1-yl-methyl)-1,3-dioxolan-4-ylmethoxy]-phenyl}-N'-methylthiourea] | 10 | 125 mg/kg of feed | 
CCCNC(=O)N1CCN(c2ccc(OC[C@H]3CO[C@](Cn4ccnc4)(c4ccc(Cl)cc4Cl)O3)cc2)CC1 (relative stereo) [cis-4-{4-[2-(2,4-dichlorophenyl)-2-(1H-imidazol-1-yl-methyl)-1,3-dioxolan-4-ylmethoxy]phenyl}-N-propyl-1-piperazinecarboxamide dihydrate] | 2.5 | 125 mg/kg of feed | 
CNC(=S)N1CCN(c2ccc(OC[C@H]3CO[C@](Cn4ccnc4)(c4ccc(Cl)cc4Cl)O3)cc2)CC1 (relative stereo) | 2.5 | 125 mg/kg of feed | 
CCC(C)N1CCN(c2ccc(OC[C@H]3CO[C@](Cn4cncn4)(c4ccc(Cl)cc4Cl)O3)cc2)CC1 (relative stereo) [CH(CH3)CH2CH3] |  |  | minimal effective dose (Candida albicans [1]): 2.5 mg/kg; ED50 (crop candidosis in turkeys) (Candida albicans [2]; Table II): 63 mg/kg of feed
CCNc1ccc(OC[C@H]2CO[C@](Cn3ccnc3)(c3ccc(Cl)cc3Cl)O2)cc1 (relative stereo) [NHCH2CH3, cis-4-[2-(2,4-dichlorophenyl)-2-(1H-imidazol-1-ylmethyl)-1,3-dioxolan-4-ylmethoxy]-N-ethylbenzenamine] | 2.5 | 31 mg/kg of feed | 
COC(=O)N1CCN(c2ccc(OC[C@H]3CO[C@](Cn4ccnc4)(c4ccc(Cl)cc4Cl)O3)cc2)CC1 (relative stereo) | 2.5 | 8 mg/kg of feed | 
CC(=O)Nc1ccc(OC[C@H]2CO[C@](Cn3ccnc3)(c3ccc(Cl)cc3Cl)O2)cc1 (relative stereo) [NHCOCH3, cis-N-{4-[2-(2,4-dichlorophenyl)-2-(1H-imidazol-1-ylmethyl)-1,3-dioxolan-4-ylmethoxy]phenyl}acetamide] | 5 | 31 mg/kg of feed | 
O=C(Nc1ccc(OC[C@H]2CO[C@](Cn3ccnc3)(c3ccc(Cl)cc3Cl)O2)cc1)c1ccccc1 (relative stereo) | 5 | 63 mg/kg of feed | 
CN1CCN(c2ccc(OC[C@H]3CO[C@](Cn4cncn4)(c4ccc(Cl)cc4Cl)O3)cc2)CC1 (relative stereo) [CH3] |  |  | minimal effective dose (Candida albicans [1]): 1.25 mg/kg; ED50 (crop candidosis in turkeys) (Candida albicans [2]; Table II): 16 mg/kg of feed
O=C(Nc1ccc(OC[C@H]2CO[C@](Cn3ccnc3)(c3ccc(Cl)cc3Cl)O2)cc1)c1ccc(F)cc1 (relative stereo) | 5 | 16 mg/kg of feed | 
CC(=O)N1CCN(c2ccc(OC[C@H]3CO[C@](Cn4cncn4)(c4ccc(Cl)cc4Cl)O3)cc2)CC1 (relative stereo) [COCH3, cis-1-acetyl-4-{4-[2-(2,4-dichlorophenyl)-2-(1H-1,2,4-triazol-1-ylmethyl)-1,3-dioxolan-4-yl-methoxy]phenyl}piperazine] |  |  | minimal effective dose (Candida albicans [1]): 1.25 mg/kg; ED50 (crop candidosis in turkeys) (Candida albicans [2]; Table II): 8 mg/kg of feed
O=CN1CCN(c2ccc(OC[C@H]3CO[C@](Cn4cncn4)(c4ccc(Cl)cc4Cl)O3)cc2)CC1 (relative stereo) [CHO, cis-4-{4-[2-(2,4-dichlorophenyl)-2-(1H-1,2,4-triazol-1-ylmethyl)-1,3-dioxolan-4-ylmethoxy]phenyl}-1-piperazinecarboxaldehyde] |  |  | minimal effective dose (Candida albicans [1]): 1.25 mg/kg; ED50 (crop candidosis in turkeys) (Candida albicans [2]; Table II): 16 mg/kg of feed
CCN1CCN(c2ccc(OC[C@H]3CO[C@](Cn4ccnc4)(c4ccc(Cl)cc4Cl)O3)cc2)CC1 (relative stereo) [drawing 37] | 1.25 | 31 mg/kg of feed | 
CCOC(=O)N1CCN(c2ccc(OC[C@H]3CO[C@](Cn4ccnc4)(c4ccc(Cl)cc4Cl)O3)cc2)CC1 (relative stereo) [drawing 31] | 2.5 | 16 mg/kg of feed | 
Clc1ccc([C@@]2(Cn3ccnc3)OC[C@H](COc3ccc(N4CCOCC4)cc3)O2)c(Cl)c1 (relative stereo) | 2.5 | 16 mg/kg of feed | 
NC(=O)N1CCN(c2ccc(OC[C@H]3CO[C@](Cn4ccnc4)(c4ccc(Cl)cc4Cl)O3)cc2)CC1 (relative stereo) | 5 | 125 mg/kg of feed | 
CS(=O)(=O)N1CCN(c2ccc(OC[C@H]3CO[C@](Cn4cncn4)(c4ccc(Cl)cc4Cl)O3)cc2)CC1 (relative stereo) [SO2CH3] |  |  | minimal effective dose (Candida albicans [1]): 1.25 mg/kg; ED50 (crop candidosis in turkeys) (Candida albicans [2]; Table II): 31 mg/kg of feed
